Reference: the kinase profiling compilation of Christmann-Franck et al. (2016)

Key:
Assay in all cases: KINOMEscan competition binding
Conditions in all cases: compound 10.0 µM
[1] = biological target: CLK4 (human) (UniProt Q9HAZ1)
[2] = biological target: MAP4K1 (human) (UniProt Q92918)
[3] = biological target: RPS6KA4 KD2 (human) (UniProt O75676)
[4] = biological target: MET (human) (UniProt P08581)
[5] = biological target: CDK11B (human) (UniProt P21127)
[6] = biological target: MAP3K12 (human) (UniProt Q12852)
[7] = biological target: BRAF (human) (UniProt P15056)
[8] = biological target: MAPK14 (human) (UniProt Q16539)
[9] = biological target: TAOK3 (human) (UniProt Q9H2K8)
[10] = biological target: BMX (human) (UniProt P51813)
[11] = biological target: PRPF4B (human) (UniProt Q13523)
[12] = biological target: GAK (human) (UniProt O14976)
[13] = biological target: CAMKK1 (human) (UniProt Q8N5S9)
[14] = biological target: MAPK3 (human) (UniProt P27361)
[15] = biological target: EPHA4 (human) (UniProt P54764)
[16] = biological target: PDPK1 (human) (UniProt O15530)
[17] = biological target: ACVRL1 (human) (UniProt P37023)
[18] = biological target: ALK (human) (UniProt Q9UM73)
[19] = biological target: PHKG2 (human) (UniProt P15735)
[20] = biological target: CDK5 (human) (UniProt Q00535)
[21] = biological target: ITK (human) (UniProt Q08881)
[22] = biological target: EPHA5 (human) (UniProt P54756)
[23] = biological target: YES1 (human) (UniProt P07947)
[24] = biological target: AXL (human) (UniProt P30530)
[25] = biological target: STK11 (human) (UniProt Q15831)
[26] = biological target: TBK1 (human) (UniProt Q9UHD2)
[27] = biological target: TNNI3K (human) (UniProt Q59H18)
[28] = biological target: PDGFRB (human) (UniProt P09619)
[29] = biological target: DCLK1 (human) (UniProt O15075)
[30] = biological target: SIK3 (human) (UniProt Q9Y2K2)
[31] = biological target: TLK1 (human) (UniProt Q9UKI8)
[32] = biological target: CDK8 (human) (UniProt P49336)
[33] = biological target: IRAK4 (human) (UniProt Q9NWZ3)
[34] = biological target: PIP5K1A (human) (UniProt Q99755)
[35] = biological target: CDKL3 (human) (UniProt Q8IVW4)
[36] = biological target: EPHA1 (human) (UniProt P21709)
[37] = biological target: MAP4K3 (human) (UniProt Q8IVH8)
[38] = biological target: ULK3 (human) (UniProt Q6PHR2)
[39] = biological target: BMPR2 (human) (UniProt Q13873)
[40] = system: KIT (human), P10721 [V559D/T670I]
[41] = biological target: FER (human) (UniProt P16591)

Sequence of ULK3 (human) (Q6PHR2 whole entry, looked up): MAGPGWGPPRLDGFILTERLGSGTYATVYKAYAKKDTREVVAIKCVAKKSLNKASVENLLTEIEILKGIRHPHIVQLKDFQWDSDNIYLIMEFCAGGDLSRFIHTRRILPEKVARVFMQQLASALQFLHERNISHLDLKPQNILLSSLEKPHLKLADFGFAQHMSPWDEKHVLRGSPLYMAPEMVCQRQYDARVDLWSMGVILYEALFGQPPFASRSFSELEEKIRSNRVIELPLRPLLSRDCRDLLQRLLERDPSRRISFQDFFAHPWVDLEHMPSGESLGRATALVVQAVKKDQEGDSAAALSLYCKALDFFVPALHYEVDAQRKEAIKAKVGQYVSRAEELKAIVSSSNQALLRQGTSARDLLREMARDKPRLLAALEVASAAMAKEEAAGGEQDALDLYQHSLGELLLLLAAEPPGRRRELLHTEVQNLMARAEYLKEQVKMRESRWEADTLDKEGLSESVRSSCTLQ
Sequence of PRPF4B (human) (Q13523 whole entry, looked up): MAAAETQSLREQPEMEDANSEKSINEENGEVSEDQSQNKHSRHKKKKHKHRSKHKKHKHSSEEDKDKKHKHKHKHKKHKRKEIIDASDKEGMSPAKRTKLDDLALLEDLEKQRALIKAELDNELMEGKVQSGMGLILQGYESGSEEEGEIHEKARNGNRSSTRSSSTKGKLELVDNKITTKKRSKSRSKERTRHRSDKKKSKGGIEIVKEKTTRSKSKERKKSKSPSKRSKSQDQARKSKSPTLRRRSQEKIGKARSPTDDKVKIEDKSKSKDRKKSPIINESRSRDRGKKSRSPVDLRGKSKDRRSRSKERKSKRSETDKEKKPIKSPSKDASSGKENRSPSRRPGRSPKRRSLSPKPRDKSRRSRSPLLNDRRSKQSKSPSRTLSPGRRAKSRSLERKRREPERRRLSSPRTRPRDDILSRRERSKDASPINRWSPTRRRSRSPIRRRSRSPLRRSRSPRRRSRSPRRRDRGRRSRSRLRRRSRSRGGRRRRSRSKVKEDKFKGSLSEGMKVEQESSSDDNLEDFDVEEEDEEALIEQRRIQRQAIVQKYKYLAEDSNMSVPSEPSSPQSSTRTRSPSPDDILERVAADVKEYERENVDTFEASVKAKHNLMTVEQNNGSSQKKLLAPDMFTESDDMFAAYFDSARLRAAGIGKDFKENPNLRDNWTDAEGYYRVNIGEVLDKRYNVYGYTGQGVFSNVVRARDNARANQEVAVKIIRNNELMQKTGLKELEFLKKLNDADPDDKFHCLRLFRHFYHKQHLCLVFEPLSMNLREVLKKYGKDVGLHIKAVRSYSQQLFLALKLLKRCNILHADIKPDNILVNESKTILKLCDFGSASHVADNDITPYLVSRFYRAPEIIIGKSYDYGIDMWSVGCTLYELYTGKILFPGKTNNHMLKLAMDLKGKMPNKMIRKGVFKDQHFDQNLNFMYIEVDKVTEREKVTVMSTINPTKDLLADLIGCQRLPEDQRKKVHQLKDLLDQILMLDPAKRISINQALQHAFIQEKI
Sequence of CLK4 (human) (Q9HAZ1 whole entry, looked up): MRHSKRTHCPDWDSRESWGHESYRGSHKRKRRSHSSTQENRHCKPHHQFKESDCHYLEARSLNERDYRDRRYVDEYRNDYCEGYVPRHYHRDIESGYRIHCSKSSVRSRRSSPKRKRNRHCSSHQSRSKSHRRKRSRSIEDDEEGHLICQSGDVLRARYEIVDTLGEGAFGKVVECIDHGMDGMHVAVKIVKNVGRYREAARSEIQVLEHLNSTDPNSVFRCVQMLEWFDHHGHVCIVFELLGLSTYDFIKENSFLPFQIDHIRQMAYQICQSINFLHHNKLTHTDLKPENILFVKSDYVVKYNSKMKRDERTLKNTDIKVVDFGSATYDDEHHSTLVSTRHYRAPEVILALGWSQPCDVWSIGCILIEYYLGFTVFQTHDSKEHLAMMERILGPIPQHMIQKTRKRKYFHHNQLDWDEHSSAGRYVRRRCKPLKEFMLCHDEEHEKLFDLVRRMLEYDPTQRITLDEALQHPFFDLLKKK
Sequence of GAK (human) (O14976 whole entry, looked up): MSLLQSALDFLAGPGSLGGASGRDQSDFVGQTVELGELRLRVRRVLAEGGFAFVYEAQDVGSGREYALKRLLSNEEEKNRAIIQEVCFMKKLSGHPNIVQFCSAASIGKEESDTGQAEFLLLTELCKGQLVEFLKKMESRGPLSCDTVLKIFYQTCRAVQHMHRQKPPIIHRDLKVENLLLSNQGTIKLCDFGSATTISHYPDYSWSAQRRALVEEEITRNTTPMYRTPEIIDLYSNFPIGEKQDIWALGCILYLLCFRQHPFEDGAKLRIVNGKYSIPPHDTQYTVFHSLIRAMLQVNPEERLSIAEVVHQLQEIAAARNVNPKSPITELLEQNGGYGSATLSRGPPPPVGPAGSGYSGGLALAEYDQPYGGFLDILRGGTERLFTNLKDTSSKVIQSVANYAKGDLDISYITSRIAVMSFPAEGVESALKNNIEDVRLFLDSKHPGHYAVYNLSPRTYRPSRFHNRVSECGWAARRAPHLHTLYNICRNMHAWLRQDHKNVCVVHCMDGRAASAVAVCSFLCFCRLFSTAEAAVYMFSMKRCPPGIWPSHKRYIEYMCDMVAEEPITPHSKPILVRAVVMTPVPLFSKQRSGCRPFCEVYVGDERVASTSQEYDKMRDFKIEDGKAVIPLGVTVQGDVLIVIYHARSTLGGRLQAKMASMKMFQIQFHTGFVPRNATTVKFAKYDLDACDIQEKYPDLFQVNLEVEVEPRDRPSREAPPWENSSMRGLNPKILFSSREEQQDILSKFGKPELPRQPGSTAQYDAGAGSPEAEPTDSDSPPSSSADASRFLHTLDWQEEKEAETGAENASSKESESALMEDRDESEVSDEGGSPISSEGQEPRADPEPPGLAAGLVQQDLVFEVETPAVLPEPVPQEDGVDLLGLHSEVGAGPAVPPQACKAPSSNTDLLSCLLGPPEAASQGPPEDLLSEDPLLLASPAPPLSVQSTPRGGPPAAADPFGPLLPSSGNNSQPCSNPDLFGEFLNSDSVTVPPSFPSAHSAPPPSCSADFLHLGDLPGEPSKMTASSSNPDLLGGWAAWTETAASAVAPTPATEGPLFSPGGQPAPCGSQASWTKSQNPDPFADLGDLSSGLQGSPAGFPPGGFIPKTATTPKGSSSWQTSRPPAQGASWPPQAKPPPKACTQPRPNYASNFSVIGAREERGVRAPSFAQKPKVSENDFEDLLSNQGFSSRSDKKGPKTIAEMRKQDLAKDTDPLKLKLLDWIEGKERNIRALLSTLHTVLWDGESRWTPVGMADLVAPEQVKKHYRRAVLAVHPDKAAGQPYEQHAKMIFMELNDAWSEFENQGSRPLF
Sequence of EPHA1 (human) (P21709 whole entry, looked up): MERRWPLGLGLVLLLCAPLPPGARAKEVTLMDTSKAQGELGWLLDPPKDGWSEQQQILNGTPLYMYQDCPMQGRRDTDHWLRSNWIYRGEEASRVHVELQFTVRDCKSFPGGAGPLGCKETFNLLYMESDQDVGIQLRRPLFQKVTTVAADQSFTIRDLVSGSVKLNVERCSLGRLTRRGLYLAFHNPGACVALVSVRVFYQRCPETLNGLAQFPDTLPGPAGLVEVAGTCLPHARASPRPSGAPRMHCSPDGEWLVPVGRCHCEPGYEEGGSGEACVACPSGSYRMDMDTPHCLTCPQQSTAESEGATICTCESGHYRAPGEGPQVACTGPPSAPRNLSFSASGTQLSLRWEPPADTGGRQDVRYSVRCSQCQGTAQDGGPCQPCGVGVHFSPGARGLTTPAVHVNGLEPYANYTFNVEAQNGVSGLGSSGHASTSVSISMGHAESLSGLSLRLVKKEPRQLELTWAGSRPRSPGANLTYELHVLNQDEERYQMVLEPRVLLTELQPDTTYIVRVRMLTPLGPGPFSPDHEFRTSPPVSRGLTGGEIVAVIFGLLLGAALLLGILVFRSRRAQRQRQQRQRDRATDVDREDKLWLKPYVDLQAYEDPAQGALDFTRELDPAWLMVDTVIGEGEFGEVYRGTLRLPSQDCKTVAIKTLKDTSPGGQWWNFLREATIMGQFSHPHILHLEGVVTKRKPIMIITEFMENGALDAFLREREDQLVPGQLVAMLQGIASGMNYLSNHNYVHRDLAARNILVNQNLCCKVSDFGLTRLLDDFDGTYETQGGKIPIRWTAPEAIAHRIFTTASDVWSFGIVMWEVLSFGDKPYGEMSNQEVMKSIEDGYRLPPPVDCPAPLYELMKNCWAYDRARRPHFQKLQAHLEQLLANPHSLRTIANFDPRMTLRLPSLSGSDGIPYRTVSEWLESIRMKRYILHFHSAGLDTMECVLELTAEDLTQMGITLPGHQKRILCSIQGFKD
Sequence of ITK (human) (Q08881 whole entry, looked up): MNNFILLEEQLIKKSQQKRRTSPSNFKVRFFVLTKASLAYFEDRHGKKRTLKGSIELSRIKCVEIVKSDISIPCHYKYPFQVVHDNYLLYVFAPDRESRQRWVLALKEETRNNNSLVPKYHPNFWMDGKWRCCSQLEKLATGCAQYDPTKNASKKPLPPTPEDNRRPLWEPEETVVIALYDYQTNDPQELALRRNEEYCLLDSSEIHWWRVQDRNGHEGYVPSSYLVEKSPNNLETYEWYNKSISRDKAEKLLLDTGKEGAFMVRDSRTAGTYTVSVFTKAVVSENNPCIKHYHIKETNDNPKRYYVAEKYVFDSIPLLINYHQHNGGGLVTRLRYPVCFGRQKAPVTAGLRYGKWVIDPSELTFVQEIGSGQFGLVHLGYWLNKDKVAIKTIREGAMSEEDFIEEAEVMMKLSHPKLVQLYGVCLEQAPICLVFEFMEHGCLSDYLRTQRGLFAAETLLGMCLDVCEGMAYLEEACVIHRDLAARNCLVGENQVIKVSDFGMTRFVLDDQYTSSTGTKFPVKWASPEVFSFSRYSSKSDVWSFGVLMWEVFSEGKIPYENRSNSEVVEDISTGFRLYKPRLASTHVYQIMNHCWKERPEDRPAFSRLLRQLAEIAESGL

SMILES	kinase still bound, per cent of control [1] [%]	kinase still bound, per cent of control [2] [%]	kinase still bound, per cent of control [3] [%]	per cent of control [5] [%]	per cent of control [6] [%]	kinase still bound, per cent of control [7] [%]	kinase still bound, per cent of control [8] [%]	kinase still bound, per cent of control [9] [%]	kinase still bound, per cent of control [10] [%]	kinase still bound, per cent of control [11] [%]	kinase still bound, per cent of control [12] [%]	kinase still bound, per cent of control [13] [%]	kinase still bound, per cent of control [14] [%]	kinase still bound, per cent of control [15] [%]	kinase still bound, per cent of control [16] [%]	kinase still bound, per cent of control [17] [%]	kinase still bound, per cent of control [18] [%]	kinase still bound, per cent of control [19] [%]	per cent of control [20] [%]	kinase still bound, per cent of control [21] [%]	further results
CCC(=O)N1CCN(c2ccc(-n3c(=O)ccc4cnc5ccc(-c6cnc7ccccc7c6)cc5c43)cc2C(F)(F)F)CC1	49	30	100	97	100	59	90	76	59	100	57	80	91	90	100	83	80	100	100	100	kinase still bound, per cent of control [4]: 84%; kinase still bound, per cent of control [22]: 100%; kinase still bound, per cent of control [23]: 74%; kinase still bound, per cent of control [24]: 46%; kinase still bound, per cent of control [25]: 100%; kinase still bound, per cent of control [26]: 93%; kinase still bound, per cent of control [27]: 66%; kinase still bound, per cent of control [28]: 24%; kinase still bound, per cent of control [29]: 100%; kinase still bound, per cent of control [30]: 89%; kinase still bound, per cent of control [31]: 100%; per cent of control [32]: 4.6%; kinase still bound, per cent of control [33]: 90%; kinase still bound, per cent of control [34]: 89%; per cent of control [35]: 92%; kinase still bound, per cent of control [36]: 62%; kinase still bound, per cent of control [37]: 1.9%; kinase still bound, per cent of control [38]: 100%; kinase still bound, per cent of control [39]: 85%
COC(=O)Nc1ccc(-c2nc(N3CCOCC3)c3cnn(C4CCN(C(=O)OC)CC4)c3n2)cc1	94	100	88	100	97	74	80	94	94	100	94	100	99	88	85	100	100	86	100	91	kinase still bound, per cent of control [22]: 100%; kinase still bound, per cent of control [23]: 97%; kinase still bound, per cent of control [24]: 100%; kinase still bound, per cent of control [25]: 100%; kinase still bound, per cent of control [40]: 100%; kinase still bound, per cent of control [26]: 99%; kinase still bound, per cent of control [27]: 100%; kinase still bound, per cent of control [28]: 100%; kinase still bound, per cent of control [29]: 93%; kinase still bound, per cent of control [41]: 100%; kinase still bound, per cent of control [30]: 83%; kinase still bound, per cent of control [31]: 91%; per cent of control [32]: 100%; kinase still bound, per cent of control [33]: 82%; kinase still bound, per cent of control [34]: 98%; per cent of control [35]: 64%; kinase still bound, per cent of control [36]: 100%; kinase still bound, per cent of control [37]: 74%; kinase still bound, per cent of control [38]: 88%; kinase still bound, per cent of control [39]: 92%
